Source: US5344846A, “Compositions and methods for inhibiting deoxyhypusine synthase and the growth of cells” (The United States of America as represented by the …, priority 1992, dated 1994)
Entries after “also recorded” stand apart in the source; their conditions may differ.

Legend:
[1] = target: T1, deoxyhypusine synthase (Rattus norvegicus, UniProt Q6AY53); experiment: Substrate property for deoxyhypusine synthase; format: biochemical; conditions: conditions similar to those for N-(3-aminopropyl)cadaverine
T1 construct: full-length homotetramer; substrate was human eIF-5A precursor expressed in E. coli
T1 sequence (Q6AY53 1-369): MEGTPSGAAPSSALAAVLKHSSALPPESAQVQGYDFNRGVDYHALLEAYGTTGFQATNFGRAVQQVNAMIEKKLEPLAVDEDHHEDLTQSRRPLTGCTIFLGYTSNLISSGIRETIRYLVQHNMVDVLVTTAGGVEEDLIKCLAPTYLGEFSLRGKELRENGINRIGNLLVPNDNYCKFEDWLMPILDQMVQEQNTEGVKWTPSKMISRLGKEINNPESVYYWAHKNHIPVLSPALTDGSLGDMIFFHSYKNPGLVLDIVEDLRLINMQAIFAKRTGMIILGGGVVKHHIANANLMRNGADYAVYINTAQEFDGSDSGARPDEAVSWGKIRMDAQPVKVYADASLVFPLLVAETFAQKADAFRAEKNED
Procedure: (See Wolff et al. (1990) J. Biol. Chem. 265:4793-4799.) The Km(app) values for the substrates, spermidine, NAD^+ and eIF-5A precursor from spermidine-depleted CHO cells, have been calculated as approximately 4, 30, and 0.08 μM, respectively.
This finding is consistent with the conclusion that this lysine is the only one in the precursor that is converted to hypusine, both in cells and in the enzyme reaction in vitro.

[2] = target: T2, deoxyhypusine synthase from rat testis (Rattus norvegicus, UniProt Q6AY53); experiment: Inhibition of deoxyhypusine synthase ([3H]deoxyhypusine formation from [3H]spermidine), IC50/Ki; format: biochemical; conditions: for relative inhibitory potency (in words): comparison with parent amine, bisguanylated counterpart or another inhibitor; for inhibition of deoxyhypusine synthase (in words): pH 9.3, 37° C., 1 hour, 2.4 μM [3H]spermidine
T2 construct: as catalyzed by deoxyhypusine synthase from rat testis; from tissue; host or cells: rat testis
T2 sequence (Q6AY53 1-369): T1 sequence (Q6AY53 1-369)
Procedure: The enzyme assay was performed as previously described (see Wolff et al. (1990) J. Biol. Chem. 265:4793-4799; and Park et al. (1991) J. Biol. Chem. 266:7988-7994). A typical assay mixture included 0.2M glycine, 1 mM dithiothreitol, 0.5 mM NAD^+, 2.4 micromolar (μM) [1,8-^3 H] spermidine, 1 μM ec-eIF-5A(Lys), 25 micrograms (μg) bovine serum albumin, and 3-15 units of enzyme in a total volume of 20 microliters (μl). Incubations were carried out at pH 9.3 and 37° C. for 1 hour. […] Percent inhibition was plotted versus log inhibitor concentration in order to obtain graphic estimates of IC50 values, i.e., the concentrations inhibiting [^3 H]deoxyhypusine production by 50%. The IC50 values reported in the tables were calculated by fitting the data points to equation 1 where x=% inhibition and I is the inhibitor concentration. [formula] The nature of the inhibition was determined by plotting reciprocal velocities of [^3 H]deoxyhypusine production against reciprocals of [^3 H]spermidine concentrations at a constant fixed level of ec-eIF-5A(Lys) (1 μM) and at set inhibitor concentrations. […] Estimates of Ki values were made by fitting the data to equation 2; wherein v is the velocity of the reaction, V is the maximum velocity, S is the substrate concentration, Km is Michaeli's constant, Ki is the inhibition constant, and I is the inhibitor concentration. [formula] All fits were performed by means of an interactive curve-fitting program, MLAB, developed and modified at the National Institutes of Health to run on an IBM personal computer.

[3] = system: deoxyhypusine synthase from HTC cells; conditions: cited from earlier work; for inhibition of deoxyhypusine synthase: 20 μM inhibitor, 1 μM spermidine, precursor from DFMO-treated HTC cells
[4] = cited from earlier work
[5] = system: deoxyhypusine synthase; conditions: cited from earlier work
[6] = system: oat seedling polyamine oxidase; conditions: cited from earlier work
[7] = system: pea seedling diamine oxidase; conditions: cited from earlier work
[8] = target: T1, deoxyhypusine synthase; conditions: earlier publications; cited from earlier work
[9] = target: T2, deoxyhypusine synthase from rat testis; conditions: cited from earlier work

Compound | inhibition of deoxyhypusine synthase (in words) [2] | inhibition of deoxyhypusine synthase [3] | pKa of N8-amino group [4] | also measured
N=C(N)NCCCNCCCCN [Compound 51, N^1 -guanylspermidine] | high affinities for the enzyme |  |  | substrate property for deoxyhypusine synthase [1]: Neither displayed any detectable substrate property; relative inhibitory potency (in words) [2]: exceeded bisguanylated spermidine (compound 53) as inhibitors; also recorded: uniformly more efficient inhibition
NCCCNCCC(F)CN (stereo not drawn) [7-monofluorospermidine] |  | 35% |  | 
N=C(N)NCCCCNCCCN [Compound 52, N^8 -guanylspermidine] | high affinities for the enzyme |  |  | substrate property for deoxyhypusine synthase [1]: Neither displayed any detectable substrate property; also recorded: If it were, it would function as a substrate which it does not; relative inhibitory potency (in words) [2]: exceeded bisguanylated spermidine (compound 53) as inhibitors; also recorded: uniformly more efficient inhibition; also recorded: somewhat more effective inhibitor than N^1 -guanylspermidine (compound 51)
NCCCNCC(F)(F)CCN [Compound 37, 6,6-difluorospermidine] | quite strong inhibitors; also recorded: effective inhibition; also recorded: act as inhibitors | 90% | 9.29 | Ki (in words) ([3]; HTC cell enzyme): very close to that for 1,3-diaminopropane and to the Km value for spermidine; pKa of N1-amino group [4]: 10.34
N=C(N)NCCCCCCCCNCCCCCCCCNC(=N)N [Compound 40, guazatine] |  |  |  | inhibition of deoxyhypusine synthase (literature) [5]: strong inhibitor; inhibition of oat seedling polyamine oxidase [6]: known to inhibit; inhibition of pea seedling diamine oxidase [7]: known to inhibit
NCCCNCC(F)CCN (stereo not drawn) [Compound 36, 6-fluorospermidine] | quite strong inhibitors; also recorded: effective inhibition; also recorded: act as inhibitors | 86% | 9.55 | pKa of N1-amino group [4]: 10.40
16-membered peptide: modeled on residues 40-55 of the human eIF-5A precursor protein and encompassing Lys^50 (IVEMSTSKTGKHGHAK; UniProt P63241 40-55, looked up, fragment) |  |  |  | substrate or cofactor function for deoxyhypusine synthase [8]: failed to act as a substrate; inhibition by precursor-related peptide [9]: only weak inhibition
NCCCNCCC(F)(F)CN [Compound 38, 7,7-Difluorospermidine] | devoid of inhibitory activity; also recorded: no inhibition | 0% | 6.64 | 
